Several values for one entry are separate records, joined by “and”; a condition that tells them apart may be missing. Equal values may be shown once. Inconclusive results and toxic doses are left out. The calls were made as follows: active = survival T/C of 150% or more; inactive = T/C below 125% in these data.
Tested on: P388 leukemia ip, CD2F1 mice, survival T/C
Assay: NCI In Vivo Anticancer Drug Screen. Data for tumor model P388 Leukemia (intraperitoneal) in CD2F1 (CDF1) mice
Conditions: endpoint: median survival time, higher = longer survival
Outline: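 Mice carrying the transplanted tumor received test compound or vehicle. Survival was recorded in each group, and the value is the treated-group measurement divided by that of the vehicle-treated control group.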

[1] = dose: 50.0 mg/kg/injection, schedule: Q01DX009 (ip), vehicle: Klucel (hydroxypropylcellulose) (HPC)
[2] = dose: 100.0 mg/kg/injection, schedule: Q01DX009 (ip), vehicle: Klucel (hydroxypropylcellulose) (HPC)
[3] = dose: 200.0 mg/kg/injection, schedule: Q01DX009 (ip), vehicle: Klucel (hydroxypropylcellulose) (HPC)
[4] = dose: 50.0 mg/kg/injection, schedule: Q01DX005 (ip), vehicle: Klucel (hydroxypropylcellulose) (HPC)
[5] = dose: 100.0 mg/kg/injection, schedule: Q01DX005 (ip), vehicle: Klucel (hydroxypropylcellulose) (HPC)
[6] = dose: 200.0 mg/kg/injection, schedule: Q01DX005 (ip), vehicle: Klucel (hydroxypropylcellulose) (HPC)
[7] = dose: 60.0 mg/kg/injection, schedule: Q01DX005 (ip), vehicle: saline with Tween-80
[8] = dose: 120.0 mg/kg/injection, schedule: Q01DX005 (ip), vehicle: saline with Tween-80
[9] = dose: 240.0 mg/kg/injection, schedule: Q01DX005 (ip), vehicle: saline with Tween-80
[10] = dose: 120.0 mg/kg/injection, schedule: Q01DX005 (ip), vehicle: Klucel (hydroxypropylcellulose) (HPC)
[11] = dose: 240.0 mg/kg/injection, schedule: Q01DX005 (ip), vehicle: Klucel (hydroxypropylcellulose) (HPC)

Measured: T/C

Cc1ccc(S(=O)(=O)NC(=O)C2C(=O)CC3(CCCCC3)CC2=O)cc1
inactive: [1] 117 % of control | [2] 123 % of control | [3] 124 % of control

COc1ccc(CCC#N)cc1OC
inactive: dose: 25.0 mg/kg/injection, schedule: Q01DX009 (ip), vehicle: other 104 % of control | dose: 50.0 mg/kg/injection, schedule: Q01DX009 (ip), vehicle: other 105 % of control | dose: 100.0 mg/kg/injection, schedule: Q01DX009 (ip), vehicle: other 100 % of control | dose: 200.0 mg/kg/injection, schedule: Q01DX009 (ip), vehicle: other 110 % of control

C=CCC1C/C=C\COC(=O)CC(C)(C)CC1=O (stereo not drawn)
inactive: dose: 25.0 mg/kg/injection, schedule: Q04DX003 (ip), vehicle: saline 100 % of control | dose: 50.0 mg/kg/injection, schedule: Q04DX003 (ip), vehicle: saline 102 % of control | dose: 100.0 mg/kg/injection, schedule: Q04DX003 (ip), vehicle: saline 102 % of control | dose: 400.0 mg/kg/injection, schedule: Q04DX003 (ip), vehicle: saline 99 % of control

CO/C1=C\C(C)=C\C(C)C(O)C(C)C/C(C)=C/C=C/C(OC)C(C(C)C(O)C(C)C2(O)CC(O)C(C)C(C(C)C)O2)OC1=O (stereo not drawn)
inactive: dose: 1.25 mg/kg/injection, schedule: Q01DX005 (ip), vehicle: other 104 % of control | dose: 2.5 mg/kg/injection, schedule: Q01DX005 (ip), vehicle: other 104 % of control | dose: 5.0 mg/kg/injection, schedule: Q01DX005 (ip), vehicle: other 113 % of control

CC1=NCC(=O)O1
inactive: [4] 98 % of control | [5] 98 % of control | [6] 102 % of control

O=C1CCC2CCCCC2N1 (stereo not drawn)
inactive: [1] 94 % of control | [2] 86 % of control

C=C(C)CBr
inactive: [7] 100 % of control | [8] 100 % of control | [9] 100 % of control

Fc1cccc(Cl)c1C(Nc1nc2ccccc2s1)Nc1nc2ccccc2s1
inactive: dose: 60.0 mg/kg/injection, schedule: Q01DX005 (ip), vehicle: Klucel (hydroxypropylcellulose) (HPC) 98 % of control | [10] 101 % of control | [11] 95 % of control

CCOC(=O)C1CCc2c(OC)c(C)cc(C)c2C1=O (stereo not drawn)
inactive: [4] 103 % of control | [5] 103 % of control | [6] 95 % of control

[Cu+].[NH-]CCCN=Cc1ccccc1O
inactive: dose: 25.0 mg/kg/injection, schedule: Q01DX001 (ip), vehicle: saline sonified 95 % of control | dose: 50.0 mg/kg/injection, schedule: Q01DX001 (ip), vehicle: saline sonified 105 % of control

COC(=O)c1cc(C)n(Cc2ccccc2)c1
inactive: dose: 100.0 mg/kg/injection, schedule: Q01DX001 (ip), vehicle: saline with Tween-80 97 % of control | dose: 200.0 mg/kg/injection, schedule: Q01DX001 (ip), vehicle: saline with Tween-80 99 % of control | dose: 400.0 mg/kg/injection, schedule: Q01DX001 (ip), vehicle: saline with Tween-80 97 % of control

CCOc1cc2c(cc1C/C=C/c1cc(OC)c(OC)c(OC)c1)OCO2
inactive: dose: 15.0 mg/kg/injection, schedule: Q01DX005 (ip), vehicle: saline with Tween-80 94 % of control | dose: 30.0 mg/kg/injection, schedule: Q01DX005 (ip), vehicle: saline with Tween-80 95 % of control | [7] 95 % of control

O=C1C2=C(Nc3cc([N+](=O)[O-])ccc3N2)OC1c1ccc2c(c1)OCO2 (stereo not drawn)
inactive: dose: 1.87 mg/kg/injection, schedule: Q01DX005 (ip), vehicle: Klucel (hydroxypropylcellulose) (HPC) 89 % of control | dose: 3.75 mg/kg/injection, schedule: Q01DX005 (ip), vehicle: Klucel (hydroxypropylcellulose) (HPC) 90 % of control | dose: 7.5 mg/kg/injection, schedule: Q01DX005 (ip), vehicle: Klucel (hydroxypropylcellulose) (HPC) 90 % of control | dose: 15.0 mg/kg/injection, schedule: Q01DX005 (ip), vehicle: Klucel (hydroxypropylcellulose) (HPC) 88 % of control | dose: 30.0 mg/kg/injection, schedule: Q01DX005 (ip), vehicle: Klucel (hydroxypropylcellulose) (HPC) 87 % of control | [10] 89 % of control and 90 % of control | [11] 93 % of control

CCOC(=O)C1=C(C)O/C(=C/c2ccccc2)C1=O
inactive: [1] 112 % of control | [2] 102 % of control | [3] 92 % of control

CC(=O)/C(Cl)=N\O
inactive: dose: 3.12 mg/kg/injection, schedule: Q01DX005 (ip), vehicle: saline 100 % of control | dose: 6.25 mg/kg/injection, schedule: Q01DX005 (ip), vehicle: saline 107 % of control | dose: 12.5 mg/kg/injection, schedule: Q01DX005 (ip), vehicle: saline 109 % of control

CSc1nc(N)c(C(=O)Nc2ccc([N+](=O)[O-])cc2)s1
inactive: [1] 99 % of control | [2] 99 % of control | [3] 100 % of control

CC(C)(C)C1=NN=C(C(C)(C)C)CSC1
inactive: [7] 108 % of control | [8] 103 % of control | [9] 104 % of control

COC1=CC(=O)OC(/C=C/c2ccccc2)(OC)C1=O (stereo not drawn)
inactive: [7] 102 % of control | [8] 110 % of control | [9] 101 % of control

Source: PubChem BioAssay AID330 (DTP/NCI, 2004)
